Reference: patent US8252768B2, “Designer therapy of pancreatic tumors” (University of Miami, priority 2006, dated 2012)

Assays:
[1] = tested on: PC-3 cells; experiment: Radiosensitization of cells in culture (Cobalt 60, clonogenic survival); format: cell-based, human; details: PC-3 cells
Protocol: (§1) Toxicity and Radiation Studies: The methods using clonogenic assays described by Perez and Greer (Int. J. Rad. Oncology: Biology, Physics 12, 1523-1527, 1986—incorporated herein by reference in its entirety) were followed.
Irradiation of Cells in Culture: 2×10^5 cells were plated in 25 cm^2 flasks and grown for 18 hr at 37° C. in a humidified 5% CO2 atmosphere. The medium was then removed and replaced with medium containing the appropriate drug concentrations and incubated for 72 hrs then removed and the cell monolayers were rinsed twice with PBS. The flasks were then filled with 50 ml of radiation medium (3 parts RPMI 1640 and 7 parts PBS plus antibiotics and glutamine). The cells were then irradiated using a Cobalt 60 irradiator. The cell monolayers were placed 35 cm away from the source and irradiated for appropriate times according to the dose rate. The dose rate was calculated, at this distance, using ionization chambers. Attenuation factors due to the polystyrene flask (0.9923) and the medium (H2O=0.8715) were considered in calculating the exposure period.
After irradiation the cell monolayers were washed again, replenished with growth media, and incubated for 1½ hours. The cell monolayers were then trypsinized and the cells serially diluted, appropriate dilutions were then plated in 60 mm dishes and incubated for 7-9 days at 37° C. and CO2. At the end of this period the cells were stained with crystal violet and the colony forming ability determined by considering 25 or more normal cells as a viable colony. The viabilities were determined and the appropriate survival curves derived. All conditions were done in duplicate using two flasks treated under identical conditions.

[2] = tested on: PC-3 cells; experiment: Cytotoxicity (clonogenic) assay, 72 h drug exposure; format: cell-based, human
Protocol: as §1
Cytotoxicity Assays: 5×10^5 cells were plated in 60 mm tissue culture dishes in 5 mls of the optimal growth media for the particular cell line in an humidified 95% air-5% CO2 atmosphere. The plates were incubated for 18-20 hours to allow for attachment and log-phase growth to begin. At the end of this period the growth medium was aspirated and replaced with […]. Four times (4×) concentrated solutions were prepared and then 1 ml was added to the plates; and growth media were then added to a total volume of […]. The plates were then incubated for 72 hours and the cells harvested by trypsinization. The cells were then serially diluted in growth medium replated into 60 mm dishes and incubated for 6 to 9 days depending on the cell line. After this incubation period, the media was aspirated and the colonies were washed twice with a PBS solution. The colonies were then stained with a 0.2% crystal violet-20% ethanol solution for 5 min. the stain was removed, the colonies were washed and air dried. A viable colony was one consisting of 25 or more normal appearing cells and was considered to have arisen from a single cell. The colonies were counted under a dissecting microscope. Two to three dilutions for every condition were plated. Dishes containing 30-300 colonies were used in the calculation and all conditions were done in duplicate.

[3] = biological target: T1, cytidine deaminase (CD) (Homo sapiens, UniProt P32320); experiment: Competition assay for substrates of cytidine deaminase, crude extracts of PC-3 cells; format: biochemical; details: competition studies, human tumor cell extracts
T1 construct: Crude extracts of PC-3 cells in culture were prepared as described above; endogenous in cells; host or cells: PC-3 cells (crude extract supernatant)
T1 sequence (P32320 whole entry): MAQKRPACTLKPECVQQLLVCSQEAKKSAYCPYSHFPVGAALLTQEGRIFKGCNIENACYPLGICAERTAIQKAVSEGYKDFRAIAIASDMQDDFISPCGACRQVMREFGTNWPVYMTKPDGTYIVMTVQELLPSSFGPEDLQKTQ
Protocol: The crude enzyme extract (the supernatant of a 10 minute 14,000×g centrifugation) was then added. When cytidine was used as substrate, assays were conducted with benzacyclouridine to inhibit uridine phosphorylases. […] After 0, 15, and 30 minutes, the reaction was stopped and denatured protein removed as above for dC Kinase. […] Aliquots were then spotted on PE cellulose TLC sheets and the reactants separated with a solvent system composed of isopropanol:HCl:H2O (170:41:39). […] The nucleosides were visualized under U.V. light and the spots cut out and counted. […] Enzyme activity was expressed as nmole formed in 30 min/mg/protein.
Competition assays to determine Substrate Specificity: Crude extracts of PC-3 cells in culture were prepared as described above. Two concentrations of crude extract were utilized for the studies as determined from the analysis of protein.
The assays were run for 0, 15, and 30 minutes.

[4] = biological target: deoxycytidine kinase (dCK) (Homo sapiens, UniProt P27707); experiment: Competition assay for substrates of deoxycytidine kinase, crude extracts of PC-3 cells
Chain of deoxycytidine kinase (dCK) (P27707 whole entry): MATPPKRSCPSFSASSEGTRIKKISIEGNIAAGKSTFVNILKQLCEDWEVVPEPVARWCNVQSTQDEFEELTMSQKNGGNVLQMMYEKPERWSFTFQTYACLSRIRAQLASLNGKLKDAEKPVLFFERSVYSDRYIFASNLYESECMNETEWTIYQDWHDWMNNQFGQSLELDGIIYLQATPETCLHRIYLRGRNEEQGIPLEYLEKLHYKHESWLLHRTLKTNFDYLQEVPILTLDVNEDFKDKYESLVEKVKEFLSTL

[5] = tested on: mouse tumor; details: in vivo; cited from earlier work
[6] = tested on: Lewis lung carcinoma; experiment: Mean day of death (T/C), Lewis lung carcinoma in mice; format: in vivo, BD2F1 mice
Protocol: ; The efficacy of the drug, F3methyldC followed the pattern of Selectivity. The mean day of death (Tumor/Control) was 1.3, 1.6, 1.8 and 1.4 for 10, 25, 50 and 75 mg/kg H4U, respectively. […].

Compound: Nc1nc(=O)n([C@H]2C[C@H](O)[C@@H](CO)O2)cc1C(F)(F)F [5-TrifluoromethyldC, 5-Trifluoromethyl-2′-deoxycytidine]
- radiosensitization of PC-3 cells (in words) [1]: not a radiosensitizer
- effect of thymidine on cytotoxicity (in words) [2]: antagonized by thymidine
- effect of tetrahydrouridine (H4U) on cytotoxicity / viability (in words) ([2]; human, 72 h): can be antagonized by H4U
- % S ([2]; nucleoside 1 μM, H4U 5 μM): 67%
- % S ([2]; nucleoside 1 μM, H4U 100 μM): 100%
- % S ([2]; nucleoside 1 μM, H4U 1500 μM): 100%
- % S ([2]; nucleoside 10 μM, H4U 5 μM): 0.1%
- % S ([2]; nucleoside 10 μM, H4U 100 μM): 2%
- % S ([2]; nucleoside 10 μM, H4U 1500 μM): 3.3%
- substrate for cytidine deaminase (in words) [3]: reasonably good substrate
- substrate for deoxycytidine kinase (in words) ([4]; competition studies, human tumor cell extracts): poor substrate
- inhibition at 250 µM ([4]; read-out: % Inhibition (dCK)): 0%
- efficacy vs a mouse tumor compared with other fluorinated pyrimidines (in words) [5]: superior to 5-FUra, 5-FdU and 5-F3dT
- MDD T/C (mean day of death) ([6]; H4U 10 mg/kg with F3methyldC): 1.3
- MDD T/C (mean day of death) ([6]; H4U 25 mg/kg with F3methyldC, mean ± SE): 1.6
- MDD T/C (mean day of death) ([6]; H4U 50 mg/kg with F3methyldC, mean ± SE): 1.8
- MDD T/C (mean day of death) ([6]; H4U 75 mg/kg with F3methyldC): 1.4
